Experimental data published in patent publication US10835468B2, “Particular pyridinedicarboxylic acid derivative/antioxidant combination” (L'OREAL, priority 2014, dated 2020).
“And” between values parts separate entries of the source, which are not always exact repeats. Equal values may be shown once.

Key:
Assay type in all cases: cell-based
Settings in all cases: 72 hours under normoxia
BNIP3 = assay: Expression of hypoxia-sensitive gene BNIP3 in primary human keratinocytes in culture (RT-qPCR)
Protocol: (§1) The following protocol was followed: the tests were performed on human keratinocytes in culture, seeded on Greiner brand 48-well plates, coated with bovine collagen I. The plates were prepared according to the following procedure: the solution of bovine collagen I at 0.1 mg/ml was prepared by dilution in phosphate-buffered saline (PBS) of the bovine collagen I solution sold by the company Life Technologies. Each well was immersed with 1 ml of this dilution, which was left at the bottom of the wells for 1 hour at 37° C. At the end of the incubation, the collagen solution was removed and the wells were rinsed twice with 1 ml of PBS. The plates were then stored at 4° C. until the time of use. […] Following this culturing and treatment, the cell lawns were washed with phosphate-buffered saline (or PBS) and then lysed using a lysis buffer proposed in the kit from the supplier Qiagen. The RNAs were then extracted using the RNeasy isolation kit and the Qiacube robotic workstation, both sold by the company Qiagen, according to the manufacturer's instructions. The quantity and quality of RNAs were controlled using the LabChip® GX bioanalyser from Perkin-Elmer before performing reverse transcription (RT) using the Qiagen kit and according to the supplier's recommendations (QuantiTect reverse transcription kit). The cDNA obtained following the RT was then amplified by real-time quantitative PCR using a specific kit sold under the commercial brand LightCycler® 480 SYBR Green Master Mix by the company Roche (Cat. No. 14123920) and an LC480 thermocycler (Roche). The PCRs were performed in triplicate (n=3). The information relating to the primers used is presented below. […] EGNL3/[…] Quantitect Assay Primer; RPL13A/QT00089915/Hs_RPL13A-1-SG Quantitect Assay Primer, and the fluorescent probe of brand name SYBR Green sold by the company specified previously. The PCR was performed in three phases: • denaturing phase for 10 minutes at 95° C., • amplification phase which consists of 45 cycles comprising: • a step of denaturing for 30 seconds at 95° C., • a step of hybridization for 30 seconds at 60° C., and • a step of elongation at 72° C. for 30 seconds, • melting phase for ensuring the quality of the hybridizations. The incorporation of SYBR Green into the amplified DNA was measured continuously during the amplification cycles. These measurements make it possible to obtain curves of fluorescence intensity as a function of the PCR cycles and thus to evaluate the relative expression of each marker from the cycle thresholds (Ct), corresponding to the number of cycles required to appropriately detect a fluorescence level. For each marker and for each condition, the relative expression (RE) value was normalized relative to the expression of the reference gene RPL13. The expression of each gene is normalized by that of the “stable referent gene” (or “housekeeping gene” RPL13A, ribosomal gene). The results (“fold change” (Fc)) are expressed relative to the control. The genes used are hypoxia-sensitive (HIF-1 alpha signalling pathway) and are collated in Table 1 below. Three hypoxia-sensitive genes (BNIP3, EGLN3 and CA9) were used in the following examples. Three tests were performed according to the protocol described above for each gene and for each compound or combination.

EGLN3 = assay: Expression of hypoxia-sensitive gene EGLN3 in primary human keratinocytes in culture (RT-qPCR)
Protocol: as §1

CA9 = assay: Expression of hypoxia-sensitive gene CA9 in primary human keratinocytes in culture (RT-qPCR)
Protocol: as §1

Compound: Oc1ccc(C=Cc2cc(O)cc(O)c2)cc1 [Resveratrol, resveratrol]
- BNIP3 expression, fold change relative to the control, mean ± standard deviation (BNIP3; compound 0.3 μM): (1.26 ± 0.24)
- BNIP3 expression, fold change relative to the control, single tests (BNIP3; compound 0.3 μM): 1.05 and 1.53 and 1.21
- BNIP3 expression, fold change relative to the control, mean ± standard deviation (BNIP3; compound 1 μM): (2.01 ± 0.79)
- EGLN3 expression, fold change relative to the control, mean ± standard deviation (EGLN3; compound 0.3 μM): (1.92 ± 0.55)
- EGLN3 expression, fold change relative to the control, single tests (EGLN3; compound 0.3 μM): 1.31 and 2.36 and 2.10
- EGLN3 expression, fold change relative to the control, mean ± standard deviation (EGLN3; compound 1 μM): (3.65 ± 1.76)
- CA9 expression, fold change relative to the control, mean ± standard deviation (CA9; compound 0.3 μM): (1.63 ± 0.28)
- CA9 expression, fold change relative to the control, single tests (CA9; compound 0.3 μM): 1.82 and 1.75 and 1.31
- CA9 expression, fold change relative to the control, mean ± standard deviation (CA9; compound 1 μM): (2.02 ± 0.33)
- CA9 expression, fold change relative to the control, single tests (CA9; compound 1 μM): 2.34 and 1.97 and 1.75

Compound: CC1=NCC[C@@H](C(=O)O)N1 [Ectoin, ectoin]
- BNIP3 expression, fold change relative to the control, mean ± standard deviation (BNIP3; compound 100 μM): (1.62 ± 0.27)
- BNIP3 expression, fold change relative to the control, single tests (BNIP3; compound 100 μM): 1.31 and 1.77
- BNIP3 expression, fold change relative to the control, mean ± standard deviation (BNIP3; compound 300 μM): (1.62 ± 0.2)
- BNIP3 expression, fold change relative to the control, single tests (BNIP3; compound 300 μM): 1.40 and 1.79 and 1.66
- EGLN3 expression, fold change relative to the control, mean ± standard deviation (EGLN3; compound 100 μM): (2.90 ± 0.50)
- EGLN3 expression, fold change relative to the control, single tests (EGLN3; compound 100 μM): 2.48 and 2.76 and 3.46
- EGLN3 expression, fold change relative to the control, mean ± standard deviation (EGLN3; compound 300 μM): (2.62 ± 0.48)
- EGLN3 expression, fold change relative to the control, single tests (EGLN3; compound 300 μM): 2.07 and 2.82 and 2.97
- CA9 expression, fold change relative to the control, mean ± standard deviation (CA9; compound 100 μM): (3.01 ± 0.64)
- CA9 expression, fold change relative to the control, single tests (CA9; compound 100 μM): 2.73 and 2.55 and 3.74
- CA9 expression, fold change relative to the control, mean ± standard deviation (CA9; compound 300 μM): (2.57 ± 0.35)
- CA9 expression, fold change relative to the control, single tests (CA9; compound 300 μM): 2.23 and 2.54 and 2.93

Compound: CCCCCCCCCCCCCCCC(=O)OC[C@H](O)[C@H]1OC(=O)C(O)=C1O [Ascorbyl palmitate, ascorbyl palmitate]
- BNIP3 expression, fold change relative to the control, mean ± standard deviation (BNIP3; compound 10 μM): (1.10 ± 0.22)
- BNIP3 expression, fold change relative to the control, single tests (BNIP3; compound 10 μM): 1.01 and 1.35 and 0.95
- BNIP3 expression, fold change relative to the control, mean ± standard deviation (BNIP3; compound 30 μM): (1.15 ± 0.41)
- BNIP3 expression, fold change relative to the control, single tests (BNIP3; compound 30 μM): 1.04 and 1.6 and 0.81
- EGLN3 expression, fold change relative to the control, mean ± standard deviation (EGLN3; compound 10 μM): (1.35 ± 0.46)
- EGLN3 expression, fold change relative to the control, mean ± standard deviation (EGLN3; compound 30 μM): (1.16 ± 0.81)
- CA9 expression, fold change relative to the control, mean ± standard deviation (CA9; compound 10 μM): (1.63 ± 0.38)
- CA9 expression, fold change relative to the control, single tests (CA9; compound 10 μM): 1.65 and 2.00 and 1.25
- CA9 expression, fold change relative to the control, mean ± standard deviation (CA9; compound 30 μM): (0.99 ± 0.80)

Compound: O=C(O)[C@H]1O[C@@H](Oc2cc3oc(-c4ccccc4)cc(=O)c3c(O)c2O)[C@H](O)[C@@H](O)[C@@H]1O [Baicalin, baicalin]
- BNIP3 expression, fold change relative to the control, mean ± standard deviation (BNIP3; compound 3 μM): (1.11 ± 0.15)
- BNIP3 expression, fold change relative to the control, single tests (BNIP3; compound 3 μM): 0.99 and 1.27 and 1.06
- BNIP3 expression, fold change relative to the control, mean ± standard deviation (BNIP3; compound 30 μM): (1.23 ± 0.15)
- BNIP3 expression, fold change relative to the control, single tests (BNIP3; compound 30 μM): 1.14 and 1.41 and 1.15
- EGLN3 expression, fold change relative to the control, mean ± standard deviation (EGLN3; compound 3 μM): (1.19 ± 0.17)
- EGLN3 expression, fold change relative to the control, single tests (EGLN3; compound 3 μM): 1.00 and 1.33 and 1.25
- EGLN3 expression, fold change relative to the control, mean ± standard deviation (EGLN3; compound 30 μM): (2.07 ± 0.39)
- EGLN3 expression, fold change relative to the control, single tests (EGLN3; compound 30 μM): 1.70 and 2.47 and 2.03
- CA9 expression, fold change relative to the control, mean ± standard deviation (CA9; compound 3 μM): (1.06 ± 0.28)
- CA9 expression, fold change relative to the control, single tests (CA9; compound 3 μM): 1.27 and 1.18 and 0.74
- CA9 expression, fold change relative to the control, mean ± standard deviation (CA9; compound 30 μM): (0.91 ± 0.27)
- CA9 expression, fold change relative to the control, single tests (CA9; compound 30 μM): 1.06 and 1.07 and 0.6

Compound: O=C1O[C@H]([C@@H](O)CO)C(O)=C1O [Vitamin C, reference compound]
- BNIP3 expression, fold change relative to the control, mean ± standard deviation (BNIP3; compound 10 μM): (1.01 ± 0.12)
- BNIP3 expression, fold change relative to the control, single tests (BNIP3; compound 10 μM): 1.02 and 1.13 and 0.89
- BNIP3 expression, fold change relative to the control, mean ± standard deviation (BNIP3; compound 100 μM): (1.12 ± 0.18)
- BNIP3 expression, fold change relative to the control, single tests (BNIP3; compound 100 μM): 0.98 and 1.32 and 1.07
- EGLN3 expression, fold change relative to the control, mean ± standard deviation (EGLN3; compound 10 μM): (1.07 ± 0.29)
- EGLN3 expression, fold change relative to the control, single tests (EGLN3; compound 10 μM): 0.92 and 1.41 and 0.89
- EGLN3 expression, fold change relative to the control, mean ± standard deviation (EGLN3; compound 100 μM): (1.24 ± 0.24)
- EGLN3 expression, fold change relative to the control, single tests (EGLN3; compound 100 μM): 1.05 and 1.51 and 1.16
- CA9 expression, fold change relative to the control, mean ± standard deviation (CA9; compound 10 μM): (1.02 ± 0.52)
- CA9 expression, fold change relative to the control, mean ± standard deviation (CA9; compound 100 μM): (1.22 ± 0.42)

Compound: CCOC(=O)c1ccnc(C(=O)OCC)c1 [Stemoxydine, diethyl 2,4-pyridinedicarboxylate]
- BNIP3 expression, fold change relative to the control, mean ± standard deviation (BNIP3; compound 300 μM): (1.76 ± 0.32)
- BNIP3 expression, fold change relative to the control, single tests (BNIP3; compound 300 μM): 1.51 and 1.65 and 2.13
- EGLN3 expression, fold change relative to the control, mean ± standard deviation (EGLN3; compound 300 μM): (2.60 ± 0.83)
- EGLN3 expression, fold change relative to the control, single tests (EGLN3; compound 300 μM): 2.15 and 2.09 and 3.56
- CA9 expression, fold change relative to the control, mean ± standard deviation (CA9; compound 300 μM): (4.53 ± 1.15)
- CA9 expression, fold change relative to the control, single tests (CA9; compound 300 μM): 3.87 and 3.86 and 5.86
